Measured values reported in patent US6376536B1, “Quaternary ammonium salts and their use” (Takeda Chemical Industries, Ltd., priority 1998, dated 2002).
Structures can show the parent of a compound that is named as a salt.

Experiments:
HIV-1 BA-L [1] = test: Inhibitory effect on HIV-1 infection to human PBMC (p24 antigen ELISA); type: cell-based; conditions: Human immunodeficiency virus 1, BAL, 0.032 μM Test Compound solution, p24 antigen in supernatant
Description: From normal person human peripheral blood mononuclear cells (PBMC) were separated, and the cells were stimulated with 10 μg/ml of PHA (Phytohemaglutinin) and 20 U/ml of interleukin-2 (IL-2) for 3 days. The cells were suspended in RPMI-1640 medium containing 20% serum to prepare 1×10 ^6/ml suspension. To the suspension were infected HIV-1 BA-L cells (20 ng as an amount of p24 antigen), and viruses were absorbed at 37° C. for 2 hours. The cells were washed and suspended in RPMI-1640 medium containing 20% serum and IL-2 20 U/ml to prepare 1×10^5/ml suspension. To the PBMC suspension was added the same amount of a solution which contains 0.032 μM of Test Compound, and the cells were cultivated at 37° C. in carbon dioxide gas incubator. The amount of p24 antigen in supernatant of the cultivated medium was determined by enzyme-linked immunosorbent assay (ELISA) and defined as degree of HIV-1 infection.

HIV-1 BA-L [2] = test: Inhibitory effect on HIV-1 infection to MAGI-CCR5 cell; type: cell-based; conditions: Human immunodeficiency virus 1, BAL, 48 h; 0.064 μM Test Compound medium; MAGI-CCR5 cells; 300 PFU HIV-1 BA-L; 2 days; blue cell count
Description: The plasmid where β-galactosidase gene was ligated downstream of HIV-1 LTR was introduced into CD4 positive HeLa cell, to which human CCR5 was further introduced to obtain transformant MAGI-CCR5. By using said transformant MAGI-CCR^5, degree of HIV-1 infection was calculated from β-galactosidase activity (blue color due to decomposition of 5-bromo-4-chloro-3-indolyl-β-D-galactopyranoside). Specifically, MAGI-CCR5 cells were suspended in DMEM medium containing 10% serum to prepare 5×10^4 cells/ml suspension. To each well of 96 well plate was inoculated 200 μl of the suspension, and the cells were cultivated at 37° C. overnight. The medium was removed by means of suction, and to the residue was added 100 μl of the above medium containing 0.064 μM of Test Compound and 100 μl of the above medium containing 300 PFU of HIV-1 BA-L cells. The cells were cultivated at 37° C. for 2 days. The medium was removed by means of suction. To the residue was added 200 μl of cell fixative (PBS containing 1% formaldehyde and 0.2% glutaraldehyde), and the mixture was allowed to stand at room temperature for 5 minutes and washed twice with PBS. […] The number of blue cells was counted by microscope and defined as the number of cells infected with HIV-1.

human CCR5 = biological target: T1, human CCR5 (Homo sapiens, UniProt P51681); test: [125I]-RANTES binding inhibition on CHO/CCR5 cells; conditions: Test Compound 1 μM, 100 pM [125I]-RANTES
T1 construct: expressed in transfected cells; plasmid pCKR5 = pcDNA3.1 with about 1.0 kb CCR5 insert
T1 sequence (P51681 whole entry): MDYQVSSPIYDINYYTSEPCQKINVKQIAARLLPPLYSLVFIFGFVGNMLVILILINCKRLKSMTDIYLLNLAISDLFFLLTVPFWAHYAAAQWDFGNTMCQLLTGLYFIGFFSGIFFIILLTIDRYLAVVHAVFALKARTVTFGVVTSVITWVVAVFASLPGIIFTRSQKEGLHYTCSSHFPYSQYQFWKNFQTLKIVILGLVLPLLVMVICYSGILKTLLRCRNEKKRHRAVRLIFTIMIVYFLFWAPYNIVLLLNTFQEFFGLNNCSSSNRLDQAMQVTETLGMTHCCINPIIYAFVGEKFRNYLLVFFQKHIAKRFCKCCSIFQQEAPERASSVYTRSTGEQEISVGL
Description: CHO-K1 cells were grown in 750 ml of tissue culture flask (Becton Dickinson) using Ham's F12 medium (Nihon Pharmaceutical) containing 10% fetal calf serum (Life Tech Oriental) and took off with 0.5 g/L trypsin-0.2 g/L EDTA (Life Tech Oriental). The cells were washed with PBS (Life Tech Oriental), centrifuged (1000 rpm, 5 minutes), and suspended in PBS. With using Gene Pulser (Bio-Rad Laboratories), DNA was introduced into the cells under the conditions shown below. That is, to the cuvette of 0.4 cm gap were added 8×10^6 cells and 10 μg of plasmid pCKR5 for expression of human CCR5, and electroporation was carried out under 0.25 kV of voltage and 960 μF. of capacitance. The cells where transferred into Ham's F12 medium (Nihon Pharmaceutical) containing 10% fetal calf serum, and cultivated for 24 hours. The cells were again took off and centrifuged, and suspended in Ham's F12 medium (Nihon Pharmaceutical) containing 10% fetal calf serum and 500 μg/ml of geneticin (Life Tech Oriental). […] Radioactivity was determined with γ-counter to select CHO/CCR5 cells which specifically bind to the ligand.
The CHO/CCR5 were inoculated on 96 well microplate (5×10^4 cells/well) and cultivated for 24 hours. […] Radio-activity was determined with TopCount Micro Scintillation Counter (Packard Instrument, Inc.). […]

Cc1ccc(-c2ccc3c(c2)C=C(C(=O)Nc2ccc(C[N+](C)(C)C4CCOCC4)cc2)CCC3)cc1 [Compound 1, N,N-dimethyl-N-(4-(((2-(4-methylphenyl)-6,7-dihydro-5H-benzocyclohepten-8-yl)carbonyl)amino)benzyl)-N-(4-tetrahydropyranyl)ammonium chloride]
inhibition at 0.032 µM (HIV-1 BA-L [1]): 74% | inhibition at 0.064 µM (HIV-1 BA-L [2]): 100%

Cc1ccc(-c2ccc3c(c2)C=C(C(=O)Nc2ccc(C[N+](C)(C)C4CCC(=O)CC4)cc2)CCO3)cc1.[Cl-] [Compound 2]
Inhibition Rate (%) to CCR5 binding (human CCR5): 96%

CCOc1ccc(-c2ccc3c(c2)C=C(C(=O)Nc2ccc(C[N+](C)(C)C4CCOCC4)cc2)CCO3)cc1 (as salt: chloride) [Compound 3, N-(4-(((7-(4-ethoxyphenyl)-2,3-dihydro-1-benzoxepin-4-yl)carbonyl)amino)benzyl)-N,N-dimethyl-N-(4-tetrahydropyranyl)ammonium chloride]
melting point: 200 to 204 °C
